Literature values, collected in patent US20060234348A1, “Method of production of RNA polymerase protein” (priority 2005, published 2006).

Target: T1, RNase A (Bos taurus, UniProt P61823)
T1 sequence (P61823 27-150): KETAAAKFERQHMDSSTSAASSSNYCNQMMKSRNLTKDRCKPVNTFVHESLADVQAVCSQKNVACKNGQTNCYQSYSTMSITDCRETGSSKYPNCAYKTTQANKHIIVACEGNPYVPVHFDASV
Conditions: RNase A 10 μg/ml, 4 mM DTT, 4° C. for 20 minutes

Compound: O[C@H](CS)[C@H](O)CS (racemic) [DTT, dithiothreitol]
- conversion of polyribosomes to monoribosomes by RNase A: reduced the conversion of polyribosomes to monoribosomes
